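Grown in 96-well plates, cells were treated for 48 hours with each compound at five concentrations. Insufficient inhibition: endpoint recorded as highest concentration tested. GI50: concentration for 50% inhibition of growth. TGI: concentration producing complete growth inhibition.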
Experiments:
Assay in all cases: growth of human tumour cells (NCI), 48 h
786-0 renal = test system: 786-0 renal
A498 renal = test system: A498 renal
A549 NSCLC = test system: A549 NSCLC
BT-549 breast = test system: BT-549 breast
COLO 205 colon = test system: COLO 205 colon
DU-145 prostate = test system: DU-145 prostate
EKVX NSCLC = test system: EKVX NSCLC
HCC-2998 colon = test system: HCC-2998 colon
HCT-116 colon = test system: HCT-116 colon
HCT-15 colon = test system: HCT-15 colon
HOP-62 NSCLC = test system: HOP-62 NSCLC
HOP-92 NSCLC = test system: HOP-92 NSCLC
HS 578T breast = test system: HS 578T breast
HT29 colon = test system: HT29 colon
IGROV1 ovarian = test system: IGROV1 ovarian
K-562 leukemia = test system: K-562 leukemia
KM12 colon = test system: KM12 colon
LOX IMVI melanoma = test system: LOX IMVI melanoma
M14 melanoma = test system: M14 melanoma
MALME-3M melanoma = test system: MALME-3M melanoma
MCF7 breast = test system: MCF7 breast
MDA-MB-231 breast = test system: MDA-MB-231 breast
MDA-MB-435 = test system: MDA-MB-435
NCI-H226 lung = test system: NCI-H226 lung
NCI-H460 lung = test system: NCI-H460 lung
NCI-H522 lung = test system: NCI-H522 lung
NCI/ADR-RES ovarian = test system: NCI/ADR-RES ovarian
OVCAR-4 ovarian = test system: OVCAR-4 ovarian
OVCAR-5 ovarian = test system: OVCAR-5 ovarian
OVCAR-8 ovarian = test system: OVCAR-8 ovarian
PC-3 prostate = test system: PC-3 prostate
RPMI-8226 leukemia = test system: RPMI-8226 leukemia
SF-268 CNS = test system: SF-268 CNS
SF-295 CNS = test system: SF-295 CNS
SF-539 CNS = test system: SF-539 CNS
SK-MEL-2 melanoma = test system: SK-MEL-2 melanoma
SK-MEL-28 melanoma = test system: SK-MEL-28 melanoma
SK-MEL-5 melanoma = test system: SK-MEL-5 melanoma
SK-OV-3 ovarian = test system: SK-OV-3 ovarian
SN12C renal = test system: SN12C renal
SNB-19 CNS = test system: SNB-19 CNS
SNB-75 CNS = test system: SNB-75 CNS
SW-620 colon = test system: SW-620 colon
T-47D breast = test system: T-47D breast
TK-10 renal = test system: TK-10 renal
U251 CNS = test system: U251 CNS
UACC-257 melanoma = test system: UACC-257 melanoma
UACC-62 melanoma = test system: UACC-62 melanoma

C#Cc1nc(/C=C/CCCCCCC(=O)NO)cs1
GI50 (786-0 renal): 6.72 µM | TGI (786-0 renal): 47.7 µM | GI50 (A498 renal): 3.7 µM | TGI (A498 renal): 16.8 µM | GI50 (A549 NSCLC): 6.23 µM | TGI (A549 NSCLC): > 100 µM | GI50 (BT-549 breast): 4.05 µM | TGI (BT-549 breast): 49.5 µM | GI50 (COLO 205 colon): 4.73 µM | TGI (COLO 205 colon): 18 µM | GI50 (DU-145 prostate): 3.01 µM | TGI (DU-145 prostate): > 100 µM | GI50 (EKVX NSCLC): 22.7 µM | TGI (EKVX NSCLC): > 100 µM | GI50 (HCC-2998 colon): 11.6 µM | TGI (HCC-2998 colon): 36.9 µM | GI50 (HCT-116 colon): 2.7 µM | TGI (HCT-116 colon): 10.5 µM | GI50 (HCT-15 colon): 7.53 µM | TGI (HCT-15 colon): > 100 µM | GI50 (HOP-62 NSCLC): 5.47 µM | TGI (HOP-62 NSCLC): 58.7 µM | GI50 (HOP-92 NSCLC): 1.18 µM | TGI (HOP-92 NSCLC): 2.76 µM | GI50 (HS 578T breast): 3.59 µM | TGI (HS 578T breast): 76.3 µM | GI50 (HT29 colon): 4.26 µM | TGI (HT29 colon): 31.4 µM | GI50 (IGROV1 ovarian): 1.63 µM | TGI (IGROV1 ovarian): 3.38 µM | GI50 (K-562 leukemia): 2.95 µM | TGI (K-562 leukemia): > 100 µM | GI50 (KM12 colon): 5.32 µM | TGI (KM12 colon): 42.6 µM | GI50 (LOX IMVI melanoma): 0.185 µM | TGI (LOX IMVI melanoma): 0.352 µM | GI50 (M14 melanoma): 5.18 µM | TGI (M14 melanoma): 61.4 µM | GI50 (MALME-3M melanoma): 1.53 µM | TGI (MALME-3M melanoma): 3.12 µM | GI50 (MCF7 breast): 5.03 µM | TGI (MCF7 breast): > 100 µM | GI50 (MDA-MB-231 breast): 2.25 µM | TGI (MDA-MB-231 breast): 5.13 µM | GI50 (MDA-MB-435): 5.67 µM | TGI (MDA-MB-435): > 100 µM | GI50 (NCI-H226 lung): 13.3 µM | TGI (NCI-H226 lung): 53.6 µM | GI50 (NCI-H460 lung): 4.16 µM | TGI (NCI-H460 lung): > 100 µM | GI50 (NCI-H522 lung): 3.05 µM | TGI (NCI-H522 lung): 17.9 µM | GI50 (NCI/ADR-RES ovarian): 2.15 µM | TGI (NCI/ADR-RES ovarian): 13.6 µM | GI50 (OVCAR-4 ovarian): 2.31 µM | TGI (OVCAR-4 ovarian): 6.34 µM | GI50 (OVCAR-5 ovarian): 3.07 µM | TGI (OVCAR-5 ovarian): > 100 µM | GI50 (OVCAR-8 ovarian): 3.45 µM | TGI (OVCAR-8 ovarian): > 100 µM | GI50 (PC-3 prostate): 5.27 µM | TGI (PC-3 prostate): > 100 µM | GI50 (RPMI-8226 leukemia): 1.41 µM | TGI (RPMI-8226 leukemia): 5.21 µM | GI50 (SF-268 CNS): 3.89 µM | TGI (SF-268 CNS): 14.9 µM | GI50 (SF-295 CNS): 5.52 µM | TGI (SF-295 CNS): 19.3 µM | GI50 (SF-539 CNS): 1.59 µM | TGI (SF-539 CNS): 3.05 µM | GI50 (SK-MEL-2 melanoma): 20.6 µM | TGI (SK-MEL-2 melanoma): 85.5 µM | GI50 (SK-MEL-28 melanoma): 9.61 µM | TGI (SK-MEL-28 melanoma): 94.7 µM | GI50 (SK-MEL-5 melanoma): 4.81 µM | TGI (SK-MEL-5 melanoma): 17.4 µM | GI50 (SK-OV-3 ovarian): 5.12 µM | TGI (SK-OV-3 ovarian): 28.3 µM | GI50 (SN12C renal): 7.84 µM | TGI (SN12C renal): > 100 µM | GI50 (SNB-19 CNS): 16 µM | TGI (SNB-19 CNS): > 100 µM | GI50 (SNB-75 CNS): 1.74 µM | TGI (SNB-75 CNS): 9.61 µM | GI50 (SW-620 colon): 2.14 µM | TGI (SW-620 colon): 4.9 µM | GI50 (T-47D breast): 3.08 µM | TGI (T-47D breast): 33.8 µM | GI50 (TK-10 renal): 2.29 µM | TGI (TK-10 renal): 16.3 µM | GI50 (U251 CNS): 3.47 µM | TGI (U251 CNS): 18.6 µM | GI50 (UACC-257 melanoma): 3.39 µM | TGI (UACC-257 melanoma): > 100 µM | GI50 (UACC-62 melanoma): 3.1 µM | TGI (UACC-62 melanoma): 15 µM
